The target in one test is T1, human MGL from HeLa cells (Homo sapiens, UniProt Q99685).
T1 construct: combining endogenously expressed MGL from HeLa cells with test compounds; endogenous in cells; host or cells: HeLa cells / cell homogenates
T1 sequence (Q99685 1-303): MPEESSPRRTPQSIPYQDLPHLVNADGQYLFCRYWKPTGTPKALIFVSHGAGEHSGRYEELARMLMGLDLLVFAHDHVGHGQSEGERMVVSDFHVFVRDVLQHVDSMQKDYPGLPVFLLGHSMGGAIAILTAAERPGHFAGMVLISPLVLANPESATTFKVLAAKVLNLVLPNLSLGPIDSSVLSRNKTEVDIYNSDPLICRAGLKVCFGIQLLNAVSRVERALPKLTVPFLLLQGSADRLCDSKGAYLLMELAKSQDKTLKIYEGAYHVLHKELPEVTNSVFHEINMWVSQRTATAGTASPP
Kind of test: In vitro MGL activity assay: [glycerol-1,3-3H]-oleyl glycerol cleavage by MGL from HeLa cells. The test is classed as biochemical. The following applies: 300 nM [Glycerol-1,3-3H]-oleyl glycerol, one hour. The text has this:
MGL is the predominant hydrolase in HeLa cells/cell homogenates.
The term IC50 denotes the concentration that inhibits the measured activity by half. Low values mean greater potency in that assay, high ones weaker potency in that assay. In turn, `COc1ccn2ncc(C(=O)N3CCc4c(nn(C)c4-c4cc(F)c(F)c(F)c4)[C@@H]3C)c2c1` [Example 389, [(7S)-2,7-Dimethyl-3-(3,4,5-trifluorophenyl)-5,7-dihydro-4H-pyrazolo[3,4-c]pyridin-6-yl]-(5-methoxypyrazolo[1,5-a]pyridin-3-yl)methanone] showed an IC50 of 9.94 nM. In other words, the single-digit nanomolar range.

As for `C[C@H]1c2nn(C)c(-c3csc(C(F)(F)F)c3)c2CCN1C(=O)c1ccc2ncccc2c1` [Example 524, [(7S)-2,7-Dimethyl-3-[5-(trifluoromethyl)-3-thienyl]-5,7-dihydro-4H-pyrazolo[3,4-c]pyridin-6-yl]-(6-quinolyl)methanone], half-maximal inhibition (IC50) required 7.23 nM. Compound `COc1cccc2c(C(=O)N3CCc4c(nn(C)c4-c4cc(F)c(F)c(F)c4)[C@@H]3C)ccnc12` [Example 550, [(7S)-2,7-Dimethyl-3-(3,4,5-trifluorophenyl)-5,7-dihydro-4H-pyrazolo[3,4-c]pyridin-6-yl]-(8-methoxy-4-quinolyl)methanone] registered an IC50 of 48.3 nM.

`COc1c(C(=O)N2CCc3c(nn(C)c3-c3cc(F)c(F)c(F)c3)[C@@H]2C)ccnc1C` [Example 599, [(7S)-2,7-Dimethyl-3-(3,4,5-trifluorophenyl)-5,7-dihydro-4H-pyrazolo[3,4-c]pyridin-6-yl]-(3-methoxy-2-methyl-4-pyridyl)methanone] had an IC50 of 71.4 nM. The IC50 values of the last two compounds are within 1.5-fold of each other. On to `C[C@H]1c2nn(C)c(-c3cccc(C(F)(F)F)c3)c2CCN1C(=O)c1ccc2ncccc2c1` [Example 468, [(7S)-2,7-Dimethyl-3-[3-(trifluoromethyl)phenyl]-5,7-dihydro-4H-pyrazolo[3,4-c]pyridin-6-yl]-(6-quinolyl)methanone], for which inhibition was half-maximal at 50.7 nM (IC50). For the compound `C[C@H]1c2nn(C)c(-c3cc(F)c(F)c(F)c3)c2CCN1C(=O)c1n[nH]c2ccncc12` [Example 435, [(7S)-2,7-Dimethyl-3-(3,4,5-trifluorophenyl)-5,7-dihydro-4H-pyrazolo[3,4-c]pyridin-6-yl]-(1H-pyrazolo[4,3-c]pyridin-3-yl)methanone], the midpoint of inhibition, the IC50, lay at 40.2 nM. `C[C@H]1c2nn(C)c(-c3cc(F)c(F)c(F)c3)c2CCN1C(=O)c1cnn(C)c1C1CC1(F)F` (single isomer, unassigned) [Example 338, (5-((S*)-2,2-Difluorocyclopropyl)-1-methyl-1H-pyrazol-4-yl)((S)-2,7-dimethyl-3-(3,4,5-trifluorophenyl)-2,4,5,7-tetrahydro-6H-pyrazolo[3,4-c]pyridin-6-yl)methanone] registered an IC50 of 14.2 nM. In turn, `C[C@H]1c2nn(C)c(-c3cc(F)c(F)c(F)c3)c2CCN1C(=O)c1c[nH]c2c(F)cccc12` [Example 359, [(7S)-2,7-Dimethyl-3-(3,4,5-trifluorophenyl)-5,7-dihydro-4H-pyrazolo[3,4-c]pyridin-6-yl]-(7-fluoro-1H-indol-3-yl)methanone] yielded an IC50 of 31 nM. The same measure, in the same setting: in the case of `Cc1cc(F)cc(-c2c3c(nn2C)[C@H](C)N(C(=O)c2ncnc4c2ccn4C)CC3)c1` [Example 465, [(7S)-3-(3-Fluoro-5-methyl-phenyl)-2,7-dimethyl-5,7-dihydro-4H-pyrazolo[3,4-c]pyridin-6-yl]-(7-methylpyrrolo[2,3-d]pyrimidin-4-yl) methanone] it was 8.46 nM; in that of `C[C@H]1c2nn(C)c(-c3cc(F)c(F)c(F)c3)c2CCN1C(=O)c1nnc2ccccn12` [Example 437, [(7S)-2,7-Dimethyl-3-(3,4,5-trifluorophenyl)-5,7-dihydro-4H-pyrazolo[3,4-c]pyridin-6-yl]-([1,2,4]triazolo[4,3-a]pyridin-3-yl)methanone], 187 nM. Compound `Cc1c[nH]c2ncnc(C(=O)N3CCc4c(nn(C)c4-c4cc(F)c(F)c(F)c4)[C@@H]3C)c12` [Example 464, [(7S)-2,7-Dimethyl-3-(3,4,5-trifluorophenyl)-5,7-dihydro-4H-pyrazolo[3,4-c]pyridin-6-yl]-(5-methyl-7H-pyrrolo[2,3-d]pyrimidin-4-yl)methanone] gave an IC50 of 31.4 nM.

For the compound `C[C@H]1c2nn(C)c(-c3cccc4nonc34)c2CCN1C(=O)c1ccc2ncccc2c1` [Example 538, [(7S)-3-(2,1,3-Benzoxadiazol-4-yl)-2,7-dimethyl-5,7-dihydro-4H-pyrazolo[3,4-c]pyridin-6-yl]-(6-quinolyl)methanone], the IC50 came to 72.6 nM.

Still in this test, the particulars now being: 300 nM [Glycerol-1,3-3H]-oleyl glycerol, one hour incubation.
Turning to `C[C@H]1c2nn(C)c(-c3cc(F)c(F)c(F)c3)c2CCN1C(=O)c1cn(C)c2cccnc12` [Example 220, (S)-(2,7-Dimethyl-3-(3,4,5-trifluorophenyl)-2,4,5,7-tetrahydro-6H-pyrazolo[3,4-c]pyridin-6-yl)(1-methyl-1H-pyrrolo[3,2-b]pyridin-3-yl)methanone], half-maximal inhibition (IC50) was put at 130 nM. Compound `COc1ccc(C(=O)N2CCc3c(nn(C)c3-c3cc(F)c(F)c(F)c3)[C@@H]2C)cn1` [Example 300, [(7S)-2,7-Dimethyl-3-(3,4,5-trifluorophenyl)-5,7-dihydro-4H-pyrazolo[3,4-c]pyridin-6-yl]-(6-methoxy-3-pyridyl)methanone] came in with an IC50 of 263 nM. On the same count and under the same terms, the value for `COc1cc(C(=O)N2CCc3c(nn(C)c3-c3cc(F)c(F)c(F)c3)[C@@H]2C)cc(-n2cncn2)c1` [Example 278, [(7S)-2,7-Dimethyl-3-(3,4,5-trifluorophenyl)-5,7-dihydro-4H-pyrazolo[3,4-c]pyridin-6-yl]-[3-methoxy-5-(1,2,4-triazol-1-yl)phenyl]methanone] was 3.24 nM; that for `Cn1nc2c(c1-c1ccccc1)CCN(C(=O)c1cccc3ncnn13)C2` [Example 85, [1,2,4]Triazolo[1,5-a]pyridin-5-yl(2-methyl-3-phenyl-2,4,5,7-tetrahydro-6H-pyrazolo[3,4-c]pyridin-6-yl)methanone] was 7140 nM. Take `CCc1nc(C(=O)N2CCc3c(nn(C)c3-c3cccc(Cl)c3)[C@@H]2C)nn1-c1ccccc1F` [Example 118, (S)-(3-(3-Chlorophenyl)-2,7-dimethyl-2,4,5,7-tetrahydro-6H-pyrazolo[3,4-c]pyridin-6-yl)(5-ethyl-1-(2-fluorophenyl)-1H-1,2,4-triazol-3-yl)methanone]: the IC50 was 13.8 nM.

With `CC1c2nn(C)c(-c3cc(F)cc(F)c3)c2CCN1C(=O)c1ccc2nccnc2c1` (stereo not drawn) [Example 167, (3-(3,5-Difluorophenyl)-2,7-dimethyl-2,4,5,7-tetrahydro-6H-pyrazolo[3,4-c]pyridin-6-yl)(quinoxalin-6-yl)methanone], the 50% inhibitory concentration (IC50) turned out to be 25.1 nM.

With `Cn1nc2c(c1-c1ccccc1)CCN(C(=O)c1ccccc1-n1cncn1)C2` [Example 18, (2-(1H-1,2,4-Triazol-1-yl)phenyl)(2-methyl-3-phenyl-2,4,5,7-tetrahydro-6H-pyrazolo[3,4-c]pyridin-6-yl)methanone], 671 nM corresponded to half-maximal inhibition (IC50). On the same count and under the same terms, in the case of `CC1c2nn(C(F)F)c(-c3cc(F)cc(F)c3)c2CCN1C(=O)c1ccc2ncccc2c1` (stereo not drawn) [Example 155, (2-(Difluoromethyl)-3-(3,5-difluorophenyl)-7-methyl-2,4,5,7-tetrahydro-6H-pyrazolo[3,4-c]pyridin-6-yl)(quinolin-6-yl)methanone] it was 4.63 nM; in that of `C[C@H]1c2nn(C)c(-c3cc(F)c(F)c(F)c3)c2CCN1C(=O)c1c(F)cccc1-n1nccn1` [Example 288, [(7S)-2,7-Dimethyl-3-(3,4,5-trifluorophenyl)-5,7-dihydro-4H-pyrazolo[3,4-c]pyridin-6-yl]-[2-fluoro-6-(triazol-2-yl)phenyl]methanone], 59.8 nM. Still for that read-out and setting: in the case of `C[C@@H]1c2nn(C)c(-c3cc(F)cc(Cl)c3)c2CCN1C(=O)c1ccc2ncccc2c1` [Example 179, (R)-(3-(3-Chloro-5-fluorophenyl)-2,7-dimethyl-2,4,5,7-tetrahydro-6H-pyrazolo[3,4-c]pyridin-6-yl)(quinolin-6-yl)methanone] it was 593 nM. In the case of `COc1cccc(C(=O)N2CCc3c(nn(-c4ccccc4)c3-c3ccccc3)[C@@H]2C)c1` [Example 257, (3-Methoxyphenyl)-[(7S)-7-methyl-2,3-diphenyl-5,7-dihydro-4H-pyrazolo[3,4-c]pyridin-6-yl]methanone], the 50% inhibitory concentration (IC50) came to 101 nM. Still for that read-out and setting: in the case of `C[C@H]1c2nn(C)c(-c3cc(F)c(F)c(F)c3)c2CCN1C(=O)c1ccccc1OC(F)(F)F` [Example 263, [(7S)-2,7-Dimethyl-3-(3,4,5-trifluorophenyl)-5,7-dihydro-4H-pyrazolo[3,4-c]pyridin-6-yl]-[2-(trifluoromethoxy)phenyl]methanone] it was 28.3 nM; in that of `Cc1ccc(-c2c3c(nn2C)[C@H](C)N(C(=O)c2ccc4nccnc4c2)CC3)cc1Cl` [Example 183, (S)-(3-(3-Chloro-4-methylphenyl)-2,7-dimethyl-2,4,5,7-tetrahydro-6H-pyrazolo[3,4-c]pyridin-6-yl)(quinoxalin-6-yl)methanone], 26.9 nM; in that of `C[C@H]1c2nn(C)c(-c3cc(F)c(F)c(F)c3)c2CCN1C(=O)c1cc(F)ccc1-n1cccn1` [Example 193, (S)-(2,7-Dimethyl-3-(3,4,5-trifluorophenyl)-2,4,5,7-tetrahydro-6H-pyrazolo[3,4-c]pyridin-6-yl)(5-fluoro-2-(1H-pyrazol-1-yl)phenyl)methanone], 75.5 nM.

Turning to `Cc1cc(C(=O)N2CCc3c(nn(C)c3-c3cc(F)c(F)c(F)c3)[C@@H]2C)cc(-n2nccn2)c1` [Example 286, [(7S)-2,7-Dimethyl-3-(3,4,5-trifluorophenyl)-5,7-dihydro-4H-pyrazolo[3,4-c]pyridin-6-yl]-[3-methyl-5-(triazol-2-yl)phenyl]methanone], the half-inhibitory concentration (IC50) stood at 2.27 nM. Against the preceding compound, the IC50 is about 33-fold lower.

Values taken from patent publication US11820766B2, “Monoacylglycerol lipase modulators” (Janssen Pharmaceutica NV, priority 2018, dated 2023).
